Laboratory results published in patent publication US6451856B1, “Carnitine supplemented diets for gestating and lactating swine” (Lonza Inc., priority 1996, dated 2002).

Assays:
Assay type in all cases: in vivo, swine
sows (PIC Line C-15x326) [1] = test: Effect of L-carnitine fed during gestation, lactation or both on sow and litter performance; conditions: for Litter birth weight / Litter weight at weaning / Litter weight gain / Pig birth weight / Pig wean weight / Pig weight gain / Survivability: 50 ppm L-carnitine in diet; for Pigs weaned per litter / Average daily feed intake, overall / Average daily feed intake, wk 1 / Average daily feed intake, wk 2: 50 ppm L-carnitine; for Pigs weaned per litter: pigs per litter on day 2 as covariate; for Average daily feed intake, overall / Average daily feed intake, wk 1 / Average daily feed intake, wk 2: sow lactation feed intake
Excerpt: A total of 307 sows (PIC Line C-15x326) were used to determine the effect of feeding 50 ppm L-carnitine on the sow and litter performance. Sows were randomly assigned to either control or test dietary treatments. The three test treatments were designated as follows: (i) control/carnitine (in which carnitine was supplemented only during the period of lactation); (ii) carnitine/control (in which carnitine was supplemented only during the period of gestation) and (iii) carnitine/carnitine (in which carnitine was supplemented during the periods of both gestation and lactation).
A gestation diet was formulated to contain nutrients in excess of NRC (1988) estimates, and included 79.51% milo; 15.22% soybean meal (46.5% CP); 2.51% monocalcium phosphate; 1.11% limestone; 0.5% sodium chloride; 0.25% sow premix; 0.25% vitamin premix; and 0.15% trace element premix. This diet contained 0.65% total lysine, 0.95% Ca and 0.85% P. Experimental gestation diet contained 50 ppm L-carnitine. Sows were fed 4 lb of diet/day once a day until farrowing. Sows were weighed and last rib fat debt was recorded at day 110 of gestation. At farrowing, a number of pigs born live, stillborn, and mummies were recorded. Individual pig weight and litter weight were also recorded. Within 48 hours from farrowing, litters were equalized within dietary treatment.
A lactation diet was formulated to contain nutrients in excess of NRC (1988) estimates, and included 62.91% milo; 28.41% soybean meal (46.5% CP); 4% soybean oil; 2.33% monocalcium phosphate; 1.12% limestone; 0.5% sodium chloride; 0.25% sow premix; 0.25% vitamin premix; 0.15% trace element premix; 0.05% vitamin E and 0.02% DL-Methionine. This diet contained 1.0% total lysine, 0.95% Ca and 0.85% P. Experimental lactation diet contained 50 ppm L-carnitine. The sows were allowed ad libitum access to feed. Feed intake was measured weekly. Pigs were weighed at weaning to determine pig and litter weight. Sows were ultrasonically scanned for last rib fat debt at weaning.
The data were analyzed by analysis of variance using GLM procedure of SAS (1988).

sows (PIC Line C-15x326) [2] = test: Sow plasma analysis for insulin and IGF-I
Method: Sows were bled at day 10, 60, 90 and 110 of gestation and at weaning. Plasma samples were analyzed for concentration of free and total carnitine, insulin, and insulin-like growth factor I (IGF-I). The data were analyzed by analysis of variance using GLM procedure of SAS (1988).

sows (PIC Line C-15x326) [3] = test: Effects of L-carnitine on subsequent reproductive performance (second reproductive cycle, no carnitine); conditions: for Days to estrus / Farrowing rate / Number born live / Number total born: first-cycle 50 ppm L-carnitine; for Farrowing rate / Number born live / Number total born: second cycle
Method: The effect of carnitine on subsequent reproductive performance was also measured. Sows fed diets described above were continued to be monitored during the subsequent, i.e., second cycle of reproduction. The sow diets were not supplemented with carnitine during the second cycle of reproduction to determine if carnitine had any residual effect. The total number of pigs born and the number of pigs born alive were determined. Referring to Table 5, feeding carnitine in the first reproductive cycle increased the total number of born pigs and the number of pigs born alive in the second reproductive cycle.

[4] = gestation and lactation (carnitine/carnitine)
[5] = gestation only (carnitine/control)
[6] = gestation only (carnitine/control), listed as Carnitine
[7] = lactation only (control/carnitine)
[8] = carnitine fed in the first reproductive cycle, none in the second

`C[N+](C)(C)C[C@H](O)CC(=O)[O-]` [L-carnitine] was tested, and the Litter birth weight (sows (PIC Line C-15x326) [1]; [4]) was 34.49 lb, the “Litter weight at weaning” value (sows (PIC Line C-15x326) [1]; [4]) was 99.03 lb and the Litter weight gain (sows (PIC Line C-15x326) [1]; [4]) was 64.25 lb. For the same compound, the Pig birth weight (sows (PIC Line C-15x326) [1]; [4]) was 3.53 lb, the Pig wean weight (sows (PIC Line C-15x326) [1]; [4]) was 10.99 lb and the Pig weight gain (sows (PIC Line C-15x326) [1]; [4]) was 7.45 lb. For the same compound, the Survivability (sows (PIC Line C-15x326) [1]; [4]) was 90.45%, the Litter birth weight (sows (PIC Line C-15x326) [1]; [5]) was “increased” and the “Litter weight at weaning” value (sows (PIC Line C-15x326) [1]; [5]) was “increased”. The Litter weight gain (sows (PIC Line C-15x326) [1]; [5]) was “increased”, the Pig birth weight (sows (PIC Line C-15x326) [1]; [5]) was “increased” and the Pig wean weight (sows (PIC Line C-15x326) [1]; [5]) was “increased”. The Pig weight gain (sows (PIC Line C-15x326) [1]; [5]) was “increased”, the Survivability (sows (PIC Line C-15x326) [1]; [5]) was 86.87% and the Litter birth weight (sows (PIC Line C-15x326) [1]; [6]) was 34.46 lb. The “Litter weight at weaning” value (sows (PIC Line C-15x326) [1]; [6]) was 97.69 lb, the Litter weight gain (sows (PIC Line C-15x326) [1]; [6]) was 62.83 lb and the Pig birth weight (sows (PIC Line C-15x326) [1]; [6]) was 3.45 lb. It also gave a Pig wean weight (sows (PIC Line C-15x326) [1]; [6]) of 10.94 lb, a Pig weight gain (sows (PIC Line C-15x326) [1]; [6]) of 7.52 lb and a Litter birth weight (sows (PIC Line C-15x326) [1]; [7]) of 32.73 lb. For the same compound, the “Litter weight at weaning” value (sows (PIC Line C-15x326) [1]; [7]) was 91.91 lb, the Litter weight gain (sows (PIC Line C-15x326) [1]; [7]) was 58.59 lb and the Pig birth weight (sows (PIC Line C-15x326) [1]; [7]) was 3.32 lb. The Pig wean weight (sows (PIC Line C-15x326) [1]; [7]) was 10.38 lb, the Pig weight gain (sows (PIC Line C-15x326) [1]; [7]) was 7.11 lb and the Survivability (sows (PIC Line C-15x326) [1]; [7]) was 86.08%. For the same compound, the “Pigs weaned per litter” value (sows (PIC Line C-15x326) [1]; [4]) was 9.00, the “Pigs weaned per litter” value (sows (PIC Line C-15x326) [1]; [5]) was 9.02 and the “Pigs weaned per litter” value (sows (PIC Line C-15x326) [1]; [7]) was 8.89. For the same compound, the “sow weight at weaning” value (sows (PIC Line C-15x326) [1]; L-carnitine during gestation only, control 493, P<0.01) was 511 lb, the “sow weight at weaning” value (sows (PIC Line C-15x326) [1]; carnitine during both gestation and lactation, control 493 lb) was 524 lb and the “sow or litter performance” value (sows (PIC Line C-15x326) [1]; carnitine during the period of lactation only, versus control) was “no differences were observed”. The “number of stillborn pigs per litter” value (sows (PIC Line C-15x326) [1]; carnitine-supplemented diet during gestation only, control 0.76, P<0.02) was 0.49 stillborn pigs/litter, the “Average daily feed intake, overall” value (sows (PIC Line C-15x326) [1]; [4]) was 13.58 lb and the “Average daily feed intake, wk 1” value (sows (PIC Line C-15x326) [1]; [4]) was 11.88 lb. The “Average daily feed intake, wk 2” value (sows (PIC Line C-15x326) [1]; [4]) was 14.87 lb, the “Average daily feed intake, overall” value (sows (PIC Line C-15x326) [1]; [5]) was 13.16 lb and the “Average daily feed intake, wk 1” value (sows (PIC Line C-15x326) [1]; [5]) was 11.52 lb. For the same compound, the “Average daily feed intake, wk 2” value (sows (PIC Line C-15x326) [1]; [5]) was 14.70 lb, the “Average daily feed intake, overall” value (sows (PIC Line C-15x326) [1]; [7]) was 13.01 lb and the “Average daily feed intake, wk 1” value (sows (PIC Line C-15x326) [1]; [7]) was 11.55 lb. For the same compound, the “Average daily feed intake, wk 2” value (sows (PIC Line C-15x326) [1]; [7]) was 14.41 lb, the “insulin levels in the plasma of sows” value (sows (PIC Line C-15x326) [2]; days 10 and 60 of gestation, P<0.07) was “tended to increase” and the “IGF-I concentration in sow plasma” value (sows (PIC Line C-15x326) [2]; gestation days 60 and 90) was “tended to increase”. The “number of pigs born alive in the second reproductive cycle” value (sows (PIC Line C-15x326) [3]; [8]) was “increased”, the “total number of born pigs in the second reproductive cycle” value (sows (PIC Line C-15x326) [3]; [8]) was “increased” and the Days to estrus (sows (PIC Line C-15x326) [3]; [4]) was 5.37 days. It also gave a Days to estrus (sows (PIC Line C-15x326) [3]; [5]) of 6.11 days, a Days to estrus (sows (PIC Line C-15x326) [3]; [7]) of 5.82 days and a Farrowing rate (sows (PIC Line C-15x326) [3]; [4]) of 93.2%. It also gave a Number born live (sows (PIC Line C-15x326) [3]; [4]) of 12.03, a Number total born (sows (PIC Line C-15x326) [3]; [4]) of 12.85 and a Farrowing rate (sows (PIC Line C-15x326) [3]; [5]) of 86.5%. For the same compound, the Number born live (sows (PIC Line C-15x326) [3]; [5]) was 11.17, the Number total born (sows (PIC Line C-15x326) [3]; [5]) was 11.97 and the Farrowing rate (sows (PIC Line C-15x326) [3]; [7]) was 96.3%. The Number born live (sows (PIC Line C-15x326) [3]; [7]) was 11.22 and the Number total born (sows (PIC Line C-15x326) [3]; [7]) was 12.26.
